Measured values reported in US9273033B2, “Substituted pyridone derivatives as PDE10 inhibitors” (Merck Sharp & Dohme Corp., priority 2012, dated 2016).

Target: human PDE10A2 (Homo sapiens (Human), UniProt Q9Y233)
Test: PDE10 fluorescence polarization (IMAP FP) inhibition assay
Assay type: biochemical
Settings: human PDE10A2, FAM-labeled cAMP substrate, read-out: PDE10A Ki
Method in brief: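 Cytoplasmic lysate of AD293 cells transiently expressing human PDE10A2 (diluted to ~20% substrate conversion) incubated 30 min at room temperature with 50 nM FAM-cAMP in Tris pH 7.2 buffer with MgCl2, DTT. Activity read by IMAP fluorescence polarization. 0% inhibition set with 1% DMSO, 100% with reference PDE10 inhibitor.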

human PDE10A2, sequence (Q9Y233 267-1055): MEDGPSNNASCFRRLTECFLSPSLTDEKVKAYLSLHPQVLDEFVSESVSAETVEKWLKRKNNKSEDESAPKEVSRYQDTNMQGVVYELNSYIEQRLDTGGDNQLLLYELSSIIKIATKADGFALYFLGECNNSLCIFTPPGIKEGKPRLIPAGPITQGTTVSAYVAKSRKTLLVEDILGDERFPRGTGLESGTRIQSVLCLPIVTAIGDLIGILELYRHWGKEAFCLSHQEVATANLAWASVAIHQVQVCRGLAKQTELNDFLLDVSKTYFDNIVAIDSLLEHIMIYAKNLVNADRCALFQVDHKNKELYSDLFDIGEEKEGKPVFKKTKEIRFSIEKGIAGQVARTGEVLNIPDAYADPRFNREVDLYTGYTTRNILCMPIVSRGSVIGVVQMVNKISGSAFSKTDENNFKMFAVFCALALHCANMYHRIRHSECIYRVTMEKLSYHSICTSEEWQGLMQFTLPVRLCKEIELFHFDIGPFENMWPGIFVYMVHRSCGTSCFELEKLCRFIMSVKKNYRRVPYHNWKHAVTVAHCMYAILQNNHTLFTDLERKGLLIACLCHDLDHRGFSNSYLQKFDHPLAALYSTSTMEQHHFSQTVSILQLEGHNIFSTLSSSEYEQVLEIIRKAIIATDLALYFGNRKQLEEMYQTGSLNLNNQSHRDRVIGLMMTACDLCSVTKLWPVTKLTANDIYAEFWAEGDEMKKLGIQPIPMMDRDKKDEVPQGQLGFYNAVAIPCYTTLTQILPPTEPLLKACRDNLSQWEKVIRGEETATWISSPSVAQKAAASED

Row | SMILES | Ki [nM]
1 | Cc1ccc([C@H]2C[C@@H]2COc2nc(C)ncc2-c2cc(=O)[nH]cc2C)nc1 [Example 71, 5-methyl-4-(2-methyl-4-(((1S,2S)-2-(5-methylpyridin-2-yl)cyclopropyl)methoxy)pyrimidin-5-yl)pyridin-2(1H)-one] | 1.01
2 | Cc1ccc([C@H]2C[C@@H]2COc2nc(C)ncc2-c2cc(=O)n(C)cc2C)nc1 [Example 72, 1,5-dimethyl-4-(2-methyl-4-(((1S,2S)-2-(5-methylpyridin-2-yl)cyclopropyl)methoxy)pyrimidin-5-yl)pyridin-2(1H)-one] | 2.16
3 | COc1ccc([C@H]2C[C@@H]2COc2nc(C)ncc2-c2cc(=O)n(C)cc2Cl)nc1 [Example 73, 5-chloro-4-(4-(((1S,2S)-2-(5-methoxypyridin-2-yl)cyclopropyl)methoxy)-2-methylpyrimidin-5-yl)-1-methylpyridin-2(1H)-one] | 1.13
4 | Cc1ncc(-c2cc(=O)n(C)cc2C)c(OC[C@H]2C[C@@H]2c2ccccn2)n1 [Example 74, 1,5-dimethyl-4-(2-methyl-4-(((1S,2S)-2-(pyridin-2-yl)cyclopropyl)methoxy)pyrimidin-5-yl)pyridin-2(1H)-one] | 16.6
5 | Cc1ncc(-c2cc(=O)[nH]cc2C)c(OC[C@H]2C[C@@H]2c2ccccn2)n1 [Example 75, 5-methyl-4-(2-methyl-4-(((1S,2S)-2-(pyridin-2-yl)cyclopropyl)methoxy)pyrimidin-5-yl)pyridin-2(1H)-one] | 8.38
6 | Cc1ncc(-c2cc(=O)n(C)cc2C)c(OC[C@H]2C[C@@H]2c2ccc3ccccc3n2)n1 [Example 76, 1,5-dimethyl-4-(2-methyl-4-(((1S,2S)-2-(quinolin-2-yl)cyclopropyl)methoxy)pyrimidin-5-yl)pyridin-2(1H)-one] | 0.035
7 | COc1ccc([C@H]2C[C@@H]2COc2nc(C)ncc2-c2cc(=O)[nH]cc2C)nc1 [Example 77, 4-(4-(((1S,2S)-2-(5-methoxypyridin-2-yl)cyclopropyl)methoxy)-2-methylpyrimidin-5-yl)-5-methylpyridin-2(1H)-one] | 0.612
8 | Cc1ccc([C@H]2C[C@@H]2COc2nc(C)ncc2-c2ccn(C)c(=O)c2)nc1 [Example 78, 1-methyl-4-(2-methyl-4-(((1S,2S)-2-(5-methylpyridin-2-yl)cyclopropyl)methoxy)pyrimidin-5-yl)pyridin-2(1H)-one] | 1.73
9 | Cc1ncc(-c2ccn(C)c(=O)c2)c(OC[C@H]2C[C@@H]2c2ccc3ccccc3n2)n1 [Example 79, 1-methyl-4-(2-methyl-4-(((1S,2S)-2-(quinolin-2-yl)cyclopropyl)methoxy)pyrimidin-5-yl)pyridin-2(1H)-one] | 0.03
10 | Cc1ncc(-c2ccn(C)c(=O)c2)c(OC[C@H]2C[C@@H]2c2ccccn2)n1 [Example 80, 1-methyl-4-(2-methyl-4-(((1S,2S)-2-(pyridin-2-yl)cyclopropyl)methoxy)pyrimidin-5-yl)pyridin-2(1H)-one] | 10.8
11 | Cc1ncc(-c2cc(=O)[nH]cc2C)c(OC[C@H]2C[C@@H]2c2ccc3ccccc3n2)n1 [Example 81, 5-methyl-4-(2-methyl-4-(((1S,2S)-2-(quinolin-2-yl)cyclopropyl)methoxy)pyrimidin-5-yl)pyridin-2(1H)-one] | 0.011
12 | COc1ccc([C@H]2C[C@@H]2COc2nc(C)ncc2-c2cc(=O)n(C)cc2C)nc1 [Example 82, 4-(4-(((1S,2S)-2-(5-methoxypyridin-2-yl)cyclopropyl)methoxy)-2-methylpyrimidin-5-yl)-1,5-dimethylpyridin-2(1H)-one] | 0.496
13 | COc1ccc([C@H]2C[C@@H]2COc2nc(C)ncc2-c2cc(=O)[nH]cc2Cl)nc1 [Example 83, 5-chloro-4-(4-(((1S,2S)-2-(5-methoxypyridin-2-yl)cyclopropyl)methoxy)-2-methylpyrimidin-5-yl)pyridin-2(1H)-one] | 0.39
14 | Cc1ncc(-c2ccn(C)c(=O)c2)c(OC[C@@H]2C[C@H]2c2ccc(F)cn2)n1 [Example 84, 4-(4-(((1R,2R)-2-(5-fluoropyridin-2-yl)cyclopropyl)methoxy)-2-methylpyrimidin-5-yl)-1-methylpyridin-2(1H)-one] | 88.4
15 | COCCn1ccc(-c2cnc(C)nc2OC[C@H]2C[C@@H]2c2ccc(C)cn2)cc1=O [Example 85, 1-(2-methoxyethyl)-4-(2-methyl-4-(((1S,2S)-2-(5-methylpyridin-2-yl)cyclopropyl)methoxy)pyrimidin-5-yl)pyridin-2(1H)-one] | 0.439
16 | Cc1ccc([C@H]2C[C@@H]2COc2nc(C)ncc2-c2cc(C)n(C)c(=O)c2)nc1 [Example 86, 1,6-dimethyl-4-(2-methyl-4-(((1S,2S)-2-(5-methylpyridin-2-yl)cyclopropyl)methoxy)pyrimidin-5-yl)pyridin-2(1H)-one] | 1.56
17 | COc1ccc([C@H]2C[C@@H]2COc2nc(C)ncc2-c2cc(C)n(C)c(=O)c2)nc1 [Example 87, 4-(4-(((1S,2S)-2-(5-methoxypyridin-2-yl)cyclopropyl)mcthoxy)-2-methylpyrimidin-5-yl)-1,6-dimethylpyridin-2(1H)-one] | 0.785

Row | SMILES | Ki [nM]
18 | Cc1ncc(-c2ccn(C)c(=O)c2)c(OC[C@H]2C[C@@H]2c2ccc(F)cn2)n1 [Example 88, 4-(4-(((1S,2S)-2-(5-fluoropyridin-2-yl)cyclopropyl)methoxy)-2-methylpyrimidin-5-yl)-1-methylpyridin-2(1H)-one] | 27.5
19 | COc1ccc([C@H]2C[C@@H]2COc2nc(C)ncc2-c2cc(=O)n(C)cc2C#N)nc1 [Example 89, 4-(4-(((1S,2S)-2-(5-methoxypyridin-2-yl)cyclopropyl)methoxy)-2-methylpyrimidin-5-yl)-1-methyl-6-oxo-1,6-dihydropyridine-3-carbonitrile] | 7.39
20 | Cc1ncc(-c2ccn(C)c(=O)c2)c(OC[C@H]2C[C@@H]2c2ccc(OC(F)F)cn2)n1 [Example 90, 4-(4-(((1S,2S)-2-(5-(difluoromethoxy)pyridin-2-yl)cyclopropyl)methoxy)-2-methylpyrimidin-5-yl)-1-methylpyridin-2(1H)-one] | 9.22
21 | Cc1ccc([C@H]2C[C@@H]2COc2nc(C)ncc2-c2ccn(C(C)C)c(=O)c2)nc1 [Example 91, 1-isopropyl-4-(2-methyl-4-(((1S,2S)-2-(5-methylpyridin-2-yl)cyclopropyl)methoxy)pyrimidin-5-yl)pyridin-2(1H)-one] | 1.2
22 | COc1ccc([C@H]2C[C@@H]2COc2nc(C)ncc2-c2cc(=O)n(C)cc2SC)nc1 [Example 92, 4-(4-(((1S,2S)-2-(5-methoxypyridin-2-yl)cyclopropyl)methoxy)-2-methylpyrimidin-5-yl)-1-methyl-5-(methylthio)pyridin-2(1H)-one] | 12.5
23 | COc1ccc([C@H]2C[C@@H]2COc2nc(C)ncc2-c2cc(=O)n(C)cc2C(F)(F)F)nc1 [Example 93, 4-(4-(((1S,2S)-2-(5-methoxypyridin-2-yl)cyclopropyl)mcthoxy)-2-methylpyrimidin-5-yl)-1-methyl-5-(trifluoromethyl)pyridin-2(1H)-one] | 3.02
24 | Cc1ncc(-c2ccn(C)c(=O)c2)c(OC[C@@H]2C[C@H]2c2ccc(OC(F)F)cn2)n1 [Example 94, 4-(4-(((1R,2R)-2-(5-(difluoromethoxy)pyridin-2-yl)cyclopropyl)methoxy)-2-methylpyrimidin-5-yl)-1-methylpyridin-2(1H)-one] | 100
25 | CCn1ccc(-c2cnc(C)nc2OC[C@H]2C[C@@H]2c2ccc(OC)cn2)cc1=O [Example 95, 1-ethyl-4-(4-(((1S,2S)-2-(5-methoxypyridin-2-yl)cyclopropyl)methoxy)-2-methylpyrimidin-5-yl)pyridin-2(1H)-one] | 0.75
26 | CCn1ccc(-c2cnc(C)nc2OC[C@H]2C[C@@H]2c2ccc3ccccc3n2)cc1=O [Example 96, 1-ethyl-4-(2-methyl-4-(((lS,2S)-2-(quinolin-2-yl)cyclopropyl)methoxy)pyrimidin-5-yl)pyridin-2(1H)-one] | 0.021
27 | Cc1ncc(-c2cc(C)n(C)c(=O)c2)c(OC[C@H]2C[C@@H]2c2ccc3ccccc3n2)n1 [Example 97, 1,6-dimethyl-4-(2-methyl-4-(((1S,2S)-2-(quinolin-2-yl)cyclopropyl)methoxy)pyrimidin-5-yl)pyridin-2(1H)-one] | 0.041
28 | COc1ccc([C@H]2C[C@@H]2COc2nc(C)ncc2-c2cc(=O)n(C)cc2S(C)(=O)=O)nc1 [Example 98, 4-(4-(((1S,2S)-2-(5-methoxypyridin-2-yl)cyclopropyl)methoxy)-2-methylpyrimidin-5-yl)-1-methyl-5-(methylsulfonyl)pyridin-2(1H)-one] | 67.5
29 | Cc1ccc([C@H]2C[C@@H]2COc2nc(C)ncc2-c2cc(=O)n(C)cc2Cl)nc1 [Example 99, 5-chloro-1-methyl-4-(2-methyl-4-(((1S,2S)-2-(5-methylpyridin-2-yl)cyclopropyl)methoxy)pyrimidin-5-yl)pyridin-2(1H)-one] | 1.11
30 | COCCn1ccc(-c2cnc(C)nc2OC[C@H]2C[C@@H]2c2ccc3ccccc3n2)cc1=O [Example 100, 1-(2-methoxyethyl)-4-(2-methyl-4-(((1S,2S)-2-(quinolin-2-yl)cyclopropyl)methoxy)pyrimidin-5-yl)pyridin-2(1H)-one] | 0.012
31 | COCCn1ccc(-c2cnc(C)nc2OC[C@H]2C[C@@H]2c2ccc(C)cn2)cc1=O [Example 101, 1-(2-methoxyethyl)-4-(2-mcthyl-4-(((1S,2S)-2-(5-methylpyridin-2-yl)cyclopropyl)methoxy)pyrimidin-5-yl)pyridin-2(lH)-one] | 0.4
32 | Cc1ncc(-c2cc(=O)n(C)cc2Cl)c(OC[C@H]2C[C@@H]2c2ccc3ccccc3n2)n1 [Example 102, 5-chloro-1-methyl-4-(2-methyl-4-(((1S,2S)-2-(quinolin-2-yl)cyclopropyl)methoxy)pyrimidin-5-yr)pyridin-2(1H)-one] | 0.04
33 | Cc1ncc(-c2ccn(C)c(=O)c2)c(OC[C@@H]2C[C@H]2c2ccc(Cl)cn2)n1 [Example 103, 4-(4-(((1R,2R)-2-(5-chloropyridin-2-yl)cyclopropyl)methoxy)-2-methylpyrimidin-5-yl)-1-methylpyridin-2(1H)-one] | 100
